# “Also recorded” adds a separate entry of the source. Read-outs that look alike come from different tables or passages of the source.
# How the values were obtained:
# Streptococcus faecium [1] = settings: cited from earlier work
# Streptococcus faecium [2] = assay: Growth inhibition of Streptococcus faecium (ATCC 8043); assay type: cell-based; settings: for Minimum Inhibitory Concentration50 for growth inhibition, S. faecium: S. faecium ATCC 8043; for Minimum Inhibitory Concentration50 for growth inhibition, S. faecium / IC50: folate concentration = 1 ng/mL; for potency against S. faecium, comparison: comparison in words; for IC50: Enterococcus faecium, ATCC8043, read-out: Minimum Inhibitory Concentration50 for growth inhibition, S. faecium, S. faecium ATCC 8043
# L1210 cells = assay: Growth inhibition of L1210 cells; assay type: cell-based; settings: for IC50: average of 3-6 runs, standard error less than 15%, read-out: growth inhibn (minimum inhibitory concentration50); for inhibition of growth for L1210 cells, comparison between isomers: comparison in words
# [3] = biological target: T1, transport protein of L1210 (Mus musculus, UniProt P41438); assay: Transport (influx, efflux) in L1210 cells; assay type: cell-based; settings: average of 3-6 runs, standard error less than 15%
# T1 sequence (P41438 1-512): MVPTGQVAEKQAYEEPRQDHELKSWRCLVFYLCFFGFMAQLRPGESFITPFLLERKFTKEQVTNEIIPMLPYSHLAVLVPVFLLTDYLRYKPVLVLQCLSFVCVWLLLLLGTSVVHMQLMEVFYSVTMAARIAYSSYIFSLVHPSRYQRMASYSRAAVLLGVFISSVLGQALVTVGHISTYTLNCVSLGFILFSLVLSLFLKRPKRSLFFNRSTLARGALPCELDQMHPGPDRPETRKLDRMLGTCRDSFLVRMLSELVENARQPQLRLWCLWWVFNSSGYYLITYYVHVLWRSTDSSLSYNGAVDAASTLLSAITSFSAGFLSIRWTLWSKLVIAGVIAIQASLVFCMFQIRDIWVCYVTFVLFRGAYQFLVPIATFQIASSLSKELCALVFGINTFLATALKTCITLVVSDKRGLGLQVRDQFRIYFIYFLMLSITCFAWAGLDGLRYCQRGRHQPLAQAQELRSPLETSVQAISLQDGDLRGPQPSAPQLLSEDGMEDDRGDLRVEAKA
# [4] = biological target: T2, dihydrofolate reductase derived from L1210 (Mus musculus, UniProt P00375); assay: Inhibition of dihydrofolate reductase derived from L1210 cells; assay type: biochemical; settings: comparison in words
# T2 construct: dihydrofolate reductase derived from L1210; endogenous in cells; host or cells: L1210 cells
# T2 sequence (P00375 1-187): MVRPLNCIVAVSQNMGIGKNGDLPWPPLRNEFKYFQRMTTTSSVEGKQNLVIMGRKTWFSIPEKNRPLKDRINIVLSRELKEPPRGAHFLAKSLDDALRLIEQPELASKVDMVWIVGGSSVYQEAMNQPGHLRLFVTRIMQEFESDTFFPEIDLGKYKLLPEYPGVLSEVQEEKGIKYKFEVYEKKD
# [5] = system: leukemia, as well as other malignancies, including ascitic tumors; settings: warm-blooded lower animals; cited from earlier work
# [6] = system: experimental murine tumor models; settings: compared with methotrexate or 10-deazaminopterin; cited from earlier work
# [7] = system: human mammary, lung and colon tumor xenografts; settings: lung and colon tumor xenografts in nude mice; cited from earlier work
# [8] = Various in vitro assays (general statement); settings: Tables I, II and III
# L1210 leukemia = assay: Antitumor activity against L1210 leukemia in mice; assay type: in vivo, BD (2) F1 female mice; settings: sc every 2 days times 5; for Mean Survival Time: untreated control 6.6 days
# [9] = biological target: dihydrofolate reductase derived from L. casei (Lacticaseibacillus casei, UniProt P00381); assay: DHFR inhibition, enzyme derived from L. casei; assay type: biochemical; settings: relative to l,L-isomer
# [10] = Mus musculus, L1210, L1210 cells
# [11] = 9 mg/kg, listed as racemic mixture
# [12] = 12 mg/kg, listed as racemic mixture
# [13] = 18 mg/kg, listed as racemic mixture
# [14] = 24 mg/kg, listed as racemic mixture
# Chain of dihydrofolate reductase derived from L. casei (P00381 whole entry): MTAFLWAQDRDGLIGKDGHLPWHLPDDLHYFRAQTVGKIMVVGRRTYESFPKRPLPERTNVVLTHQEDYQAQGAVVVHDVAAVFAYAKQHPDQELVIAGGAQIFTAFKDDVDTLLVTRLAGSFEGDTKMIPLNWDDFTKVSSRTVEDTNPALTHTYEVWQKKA
compound,measurement,setting,value
Nc1nc2c(c(=O)[nH]1)NC(CCc1ccc(C(=O)O)cc1)CN2 (stereo not drawn),growth-inhibitory activity against Streptococcus faecium,Streptococcus faecium [1],Activity was greatly enhanced by reduction to the tetrahydro compound
"CCC(CC1CNc2nc(N)nc(N)c2N1)c1ccc(C(=O)N[C@@H](CCC(=O)O)C(=O)O)cc1 (mixture of isomers) [5,6,7,8-tetrahydro racemic mixture]","Minimum Inhibitory Concentration50 for growth inhibition, S. faecium",Streptococcus faecium [2],2.6 ng/mL
"CC(Cc1cnc2nc(N)nc(N)c2n1)c1ccc(C(=O)N[C@@H](CCC(=O)O)C(=O)O)cc1 (single isomer, unassigned) [d, L-10-methyl, 10-methyl-10-deazaminopterin]",IC50,L1210 cells; L1210 cells,0.68 nM
same,"inhibition of growth for L1210 cells, comparison between isomers",L1210 cells,not a significant difference
same,transport efflux k,[3],0.258 min⁻¹
same,"inhibition of dihydrofolate reductase derived from L1210, comparison between isomers",[4],not significantly different from one another or MTX
"CCC(Cc1cnc2nc(N)nc(N)c2n1)c1ccc(C(=O)N[C@@H](CCC(=O)O)C(=O)O)cc1 (single isomer, unassigned) [l, L-10-ethyl, l,L-10-ethyl-10-deazaminopterin]",IC50,L1210 cells; [10],1.52 nM
same,"inhibition of growth for L1210 cells, comparison between isomers",L1210 cells,"only one-third as potent as the d,L isomer"
same,"potency against S. faecium, comparison",Streptococcus faecium [2],"slightly more potent than the d,L-isomer"
same,transport efflux k,[3],0.249 min⁻¹
"CC(Cc1cnc2nc(N)nc(N)c2n1)c1ccc(C(=O)N[C@@H](CCC(=O)O)C(=O)O)cc1 (single isomer, unassigned) [l, L-10-methyl, 10-methyl-10-deazaminopterin]",IC50,L1210 cells; [10],1.18 nM
same,"inhibition of growth for L1210 cells, comparison between isomers",L1210 cells,not a significant difference
same,transport efflux k,[3],0.267 min⁻¹
same,"inhibition of dihydrofolate reductase derived from L1210, comparison between isomers",[4],not significantly different from one another or MTX
"CCC(CC1CNc2nc(N)nc(N)c2N1)c1ccc(C(=O)N[C@@H](CCC(=O)O)C(=O)O)cc1 (stereo partly drawn) [5,6,7,8-tetrahydro d, L]","Minimum Inhibitory Concentration50 for growth inhibition, S. faecium",Streptococcus faecium [2],2.5 ng/mL
same,"potency against S. faecium, comparison",Streptococcus faecium [2],"slightly more potent than the l,L isomer"
"CCC(CC1CNc2nc(N)nc(N)c2N1)c1ccc(C(=O)N[C@@H](CCC(=O)O)C(=O)O)cc1 (stereo partly drawn) [5,6,7,8-tetrahydro l, L]",IC50,Streptococcus faecium [2],3.1 ng/mL
"CCC(CC1=Nc2c(N)nc(N)nc2NC1)c1ccc(C(=O)N[C@@H](CCC(=O)O)C(=O)O)cc1 (stereo partly drawn) [7,8-dihydro l, L]",IC50,Streptococcus faecium [2],1.1 ng/mL
Nc1nc(N)c2nc(CCc3ccc(C(=O)NC(CCC(=O)O)C(=O)O)cc3)cnc2n1 (stereo not drawn) [10-deazaminopterin],"amelioration of leukemia and other malignancies, including ascitic tumors",[5],can be ameliorated
Nc1nc2ncc(CCc3ccc(C(=O)O)cc3)nc2c(=O)[nH]1 [10-deazapteroic acid],growth-inhibitory activity against Streptococcus faecium,Streptococcus faecium [1],potent growth-inhibitory activity
CCC(Cc1cnc2nc(N)nc(N)c2n1)c1ccc(C(=O)N[C@@H](CCC(=O)O)C(=O)O)cc1 (stereo partly drawn) [10-ethyl-10-deazaminopterin],effectiveness in experimental murine tumor models,[6],considerably more effective than methotrexate or 10-deazaminopterin
same,regression of human tumor xenografts,[7],frank regressions
same,"inhibitory activity in the various in vitro assays, comparison",[8],"intermediate between the values for the resolved d,L and l,L diasteromers"
same,30-day survivors,L1210 leukemia; [11],0/10
same,Increased Life Span,L1210 leukemia; [11],+135%
same,Toxic deaths,L1210 leukemia; [11],0/10
same,Mean Survival Time,L1210 leukemia; [11],15.5 ± 0.6 days
same,30-day survivors,L1210 leukemia; [12],0/10
same,Increased Life Span,L1210 leukemia; [12],+153%
same,Toxic deaths,L1210 leukemia; [12],0/10
same,Mean Survival Time,L1210 leukemia; [12],16.7 ± 0.7 days
same,30-day survivors,L1210 leukemia; [13],0/10
same,Increased Life Span,L1210 leukemia; [13],+193%
same,Toxic deaths,L1210 leukemia; [13],0/10
same,Mean Survival Time,L1210 leukemia; [13],19.3 ± 0.8 days
same,30-day survivors,L1210 leukemia; [14],2/10
same,Increased Life Span,L1210 leukemia; [14],> +207%
same,Toxic deaths,L1210 leukemia; [14],2/10
same,Mean Survival Time,L1210 leukemia; [14],20.3 ± 1.9 days
same,30-day survivors,L1210 leukemia; 32 mg/kg,0/10
same,Increased Life Span,L1210 leukemia; 32 mg/kg,+67%
same,Toxic deaths,L1210 leukemia; 32 mg/kg,10/10
same,Mean Survival Time,L1210 leukemia; 32 mg/kg,16.0 ± 1.1 days
"CCC(Cc1cnc2nc(N)nc(N)c2n1)c1ccc(C(=O)N[C@@H](CCC(=O)O)C(=O)O)cc1 (stereo partly drawn) [d, L-10-ethyl, d,L-10-ethyl-10-deazaminopterin]",IC50,L1210 cells; [10],0.43 nM
same,"inhibition of growth for L1210 cells, comparison between isomers",L1210 cells,significantly more effective
same,transport efflux k,[3],0.253 min⁻¹
same,"potency against the L. casei enzyme, d,L-isomer over l,L-isomer",[9],approximately three-fold greater potency
same,"inhibition of dihydrofolate reductase derived from L1210, comparison between isomers","[4]; listed as d,L isomer of 10-ethyl-10-deazaminopterin","significantly more effective; also recorded: three-fold difference between l,L and d,L isomers"
same,30-day survivors,"L1210 leukemia; 9 mg/kg, listed as d, L",0/6
same,Increased Life Span,"L1210 leukemia; 9 mg/kg, listed as d, L",+177%
same,Toxic deaths,"L1210 leukemia; 9 mg/kg, listed as d, L",0/6
same,Mean Survival Time,"L1210 leukemia; 9 mg/kg, listed as d, L",18.3 ± 1.7 days
same,30-day survivors,"L1210 leukemia; 12 mg/kg, listed as d, L",0/9
same,Increased Life Span,"L1210 leukemia; 12 mg/kg, listed as d, L",+199%
same,Toxic deaths,"L1210 leukemia; 12 mg/kg, listed as d, L",3/9
same,Mean Survival Time,"L1210 leukemia; 12 mg/kg, listed as d, L",19.8 ± 2.3 days
same,30-day survivors,"L1210 leukemia; 18 mg/kg, listed as d, L",1/9
same,Increased Life Span,"L1210 leukemia; 18 mg/kg, listed as d, L",> +165%
same,Toxic deaths,"L1210 leukemia; 18 mg/kg, listed as d, L",5/9
same,Mean Survival Time,"L1210 leukemia; 18 mg/kg, listed as d, L",17.5 ± 1.5 days
same,30-day survivors,"L1210 leukemia; 24 mg/kg, listed as d, L",0/3
same,Increased Life Span,"L1210 leukemia; 24 mg/kg, listed as d, L",+55%
same,Toxic deaths,"L1210 leukemia; 24 mg/kg, listed as d, L",3/3
same,Mean Survival Time,"L1210 leukemia; 24 mg/kg, listed as d, L",10.0 ± 0 days
"CN(Cc1cnc2nc(N)nc(N)c2n1)c1ccc(C(=O)N[C@@H](CCC(=O)O)C(=O)O)cc1 [methotrexate, reference compound]",IC50,L1210 cells; L1210 cells,2.48 nM
same,transport efflux k,[3],0.213 min⁻¹
same,30-day survivors,L1210 leukemia; 9 mg/kg,0/10
same,Increased Life Span,L1210 leukemia; 9 mg/kg,+137%
same,Toxic deaths,L1210 leukemia; 9 mg/kg,0/10
same,Mean Survival Time,L1210 leukemia; 9 mg/kg,15.7 ± 0.4 days
same,30-day survivors,L1210 leukemia; 12 mg/kg,0/10
same,Toxic deaths,L1210 leukemia; 12 mg/kg,1/10
same,Mean Survival Time,L1210 leukemia; 12 mg/kg,16.3 ± 0.7 days
same,30-day survivors,L1210 leukemia; 18 mg/kg,0/10
same,Increased Life Span,L1210 leukemia; 18 mg/kg,+119%
same,Toxic deaths,L1210 leukemia; 18 mg/kg,6/10
same,Mean Survival Time,L1210 leukemia; 18 mg/kg,14.5 ± 1.6 days
same,30-day survivors,L1210 leukemia; 24 mg/kg,0/10
same,Increased Life Span,L1210 leukemia; 24 mg/kg,+46%
same,Toxic deaths,L1210 leukemia; 24 mg/kg,10/10
same,Mean Survival Time,L1210 leukemia; 24 mg/kg,9.6 ± 1.1 days

# Reference: patent US4746659A, “Diastereomers of 10-alkyl-10-deazaminopterins and process for preparing the same” (priority 1985, dated 1988)
